Assay results reported in patent US20240325495A1, “FUSION PROTEINS FOR THE TREATMENT OF DISEASE” (Bristol-Myers Squibb Company, priority 2020, published 2024).
Where two headings read alike, the source gives them in different places.

What was measured:
monkeys [1] = test: 2-week toxicity study in monkeys, weekly SC
Treg = test: Phase 1 single ascending dose study, Cohort A4; format: in vivo, human; settings: Cohort A4, 3 mg single intravenous infusion, compared to placebo; preliminary
Protocol: BMS-986326 is assessed in a Phase 1, randomized, double-blind, placebo-controlled, single ascending doses (SAD) study to evaluate the safety, tolerability, pharmacokinetics (PK), and pharmacodynamics (PD) of single doses of BMS-986326 in healthy adult participants.
Blood samples are collected and measured by flow cytometry for quantitating immune cells such as Treg, Tconv, follicular helper T cells (Tfh), B cells, and NK cells by surface markers that may include, but not limited to, cell lineage and activation markers CD3, CD4, CD8, CD14, CD25, CD39, CD45, CD45RA, CD56, CD127, Foxp3, Helios, CXCR5, CCR7, and Ki67. Blood samples are also collected and measured by flow cytometry for determining BMS-986326 engagement to Treg, Tconv, CD8 T cells, and NK cells identified by pSTAT5.
Preliminary Results from BMS-986326 Cohort A4 (3 mg Single Intravenous Infusion)

monkeys [2] = settings: monkey, in vivo, sc
rats = test: Toxicity studies in rats: ADA and PD effects; format: in vivo
Description: (§1) The single- and repeat-dose toxicity of BMS-986326 were characterized in a series of studies in rats for up to 2 weeks and in monkeys up to 12 weeks using selected dosing frequencies. Pivotal good laboratory practice (GLP) repeat-dose studies in both species employed SC administration of BMS-986326 and consisted of two 2-week studies in rats using differing dose frequencies (once weekly [QW] vs twice weekly [2QW]), a 2-week once weekly dosing study in monkeys, and a 12-week (once every 3 week, Q3W) dosing study in monkeys. In addition, single-dose exploratory studies were initially completed in both rats and monkeys to explore the tolerability of BMS-986326, and a single-dose GLP IV toxicity and cardiovascular safety study was also completed in telemeterized monkeys using IV dosing to support IV administration in the first-in-human (FIH) single-ascending dose (SAD) study (IM034001).
(§2) In rats, BMS-986326 was noted to be highly immunogenic, with ADA formation occurring in 84% of BMS-986326-treated rats. In general, the presence of ADA was associated with reduced exposure and loss of PD activity, but was not associated with toxicity.
Intended and unintended PD effects occurred in a dose-dependent manner across all doses of each toxicity study and were generally more pronounced in monkeys than in rats. As an IL-2R agonist, BMS-986326 induced maximal phosphorylation of STAT5 in Treg cells (72% to 95%) across all doses in rats and monkeys, increased Treg cells (up to 63× in monkeys) and/or CD25 expression on CD4 Tregs (up to 4.5× in rats), and raised serum levels of IL-10 (up to 2× in rats and 87× in monkeys). In addition to the desired pharmacologic effects on Tregs, BMS-986326 also led to unintended effects including dose-dependent activation of conventional CD4 and CD8 T cell populations and NK cells, with concomitant elevation of serum IL-5, MCP-1, and perforin. At higher doses of BMS-986326 when dosed weekly in monkeys, increases in B cells (1.6×) and other inflammatory cytokines such as […] (7.9×), IL-1Ra (49×), and IL-6 (5.1×) were also noted. […]

monkeys [3] = test: Toxicity studies in monkeys: ADA and PD effects; format: in vivo
Description: as §1, §2
Intended and unintended PD effects occurred in a dose-dependent manner across all doses of each toxicity study and were generally more pronounced in monkeys than in rats. As an IL-2R agonist, BMS-986326 induced maximal phosphorylation of STAT5 in Treg cells (72% to 95%) across all doses in rats and monkeys, increased Treg cells (up to 63× in monkeys) and/or CD25 expression on CD4 Tregs (up to 4.5× in rats), and raised serum levels of IL-10 (up to 2× in rats and 87× in monkeys). In addition to the desired pharmacologic effects on Tregs, BMS-986326 also led to unintended effects including dose-dependent activation of conventional CD4 and CD8 T cell populations and NK cells, with concomitant elevation of serum IL-5, MCP-1, and perforin. At higher doses of BMS-986326 when dosed weekly in monkeys, increases in B cells (1.6×) and other inflammatory cytokines such as […] (7.9×), IL-1Ra (49×), and IL-6 (5.1×) were also noted. These inflammatory cytokines were not elevated when lower doses of BMS-986326 were given less frequently (Q3W) in the 12-week monkey toxicity study.

[4] = Human PK/PD, exposure and efficacious dose projection; settings: projected peak
Protocol: Human PK was projected using allometric scaling of monkey PK parameters and was assumed to have similar SC bioavailability as in monkeys.
The first approach was based on maximal preclinical efficacy in mouse models dosed with mIL2-CD25.
The selection of the starting dose of 0.1 mg IV is based on the available preclinical PK, toxicology, and pharmacology data. PK/PD modeling and simulations were performed to generate predicted human PK and PD profiles from nonclinical data.

monkeys [5] = test: 12-week monkey toxicity study, SC Q3W
Protocol: In the 12-week monkey study, dose range and frequencies were reduced compared to the 2-week study with BMS-986326 administered at 0.0625, 0.125, or 0.25 mg/kg SC Q3W (Days 1, 22, 43, and 64).

[6] = test system: pSTAT5 in Tregs, Tconv, CD8 cells and NK cells; test: Whole blood pSTAT5 assay, selectivity across cell types; format: cell-based
[7] = target: IL-2Rβγ (as a pre-assembled heterodimer); test: Binding affinity to rat IL-2Rβγ
[8] = Nonclinical pharmacokinetics in mice; format: in vivo
Protocol: (§3) Various in vitro and in vivo studies were conducted to characterize the PK of BMS-986326 in the nonclinical setting.

[9] = Linker-cleavage ex vivo in monkey serum samples (LC-MS/MS); format: in vitro ADME; settings: monkey serum samples ex vivo after SC administration, up to 168 hours
Protocol: as §3

[10] = Linker-cleavage in human serum in vitro (LC-MS/MS); format: in vitro ADME; settings: up to 72 hours
Protocol: as §3

Substance: BMS-986326: recombinant fusion protein of human IL2 and extracellular domain of human CD25, (GGGS)3 linker, non-covalent self-blocking homodimer
- mean AUC[0-168 h] at NOAEL (monkeys [1]; 0.125 mg/kg/week): 132 µg·h/mL
- NOAEL (monkeys [1]; 2-week weekly SC): 0.125 mg/kg/week
- clinically tolerated doses (monkeys [1]; weekly SC, 2 weeks): ≤ 0.25 mg/kg
- Treg versus baseline levels (Treg): increased from baseline levels
- AUC (monkeys [2]; 0.075 mg/kg): approximately 48 μg·h/mL
- AUC (monkeys [2]; 0.75 mg/kg): ~407 µg·h/mL
- AUC[INF] (monkeys [2]; 0.75 mg/kg): 407 µg·h/mL
- ADA formation, % of treated rats (rats): 84%
- increase in CD25 expression on CD4 Tregs (rats): up to 4.5 ×
- increase in serum levels of IL-10 (rats): up to 2 ×
- increase in Treg cells (monkeys [3]): up to 63 ×
- increase in serum levels of IL-10 (monkeys [3]): ≤ 87 ×
- increase in B cells (monkeys [3]; higher doses dosed weekly): 1.6 ×
- increase in IFN-7 (monkeys [3]; higher doses dosed weekly): 7.9 ×
- increase in IL-1Ra (monkeys [3]; higher doses dosed weekly): 49 ×
- increase in IL-6 (monkeys [3]; higher doses dosed weekly): 5.1 ×
- ADA development (monkeys [3]; pivotal toxicity studies): generally did not develop
- Fold-change CD8+ ([4]; 0.1 mg IV): <2 fold
- Fold-change Tregs ([4]; 0.1 mg IV): <2 fold
- Fold-change CD8+ ([4]; 0.3 mg IV): <2 fold
- Fold-change Tregs ([4]; 0.3 mg IV): <2 fold
- Fold-change CD8+ ([4]; 1 mg IV): <2 fold
- Fold-change Tregs ([4]; 1 mg IV): 2-4 fold
- Fold-change CD8+ ([4]; 1 mg SC): <2 fold
- Fold-change Tregs ([4]; 1 mg SC): 2-3 fold
- Fold-change CD8+ ([4]; 3 mg IV): <2 fold
- Fold-change Tregs ([4]; 3 mg IV): 4-8 fold
- Fold-change CD8+ ([4]; 3 mg SC): <2 fold
- Fold-change Tregs ([4]; 3 mg SC): 3-5 fold
- Fold-change CD8+ ([4]; 6 mg IV): ~2 fold
- Fold-change Tregs ([4]; 6 mg IV): 7-15 fold
- Fold-change CD8+ ([4]; 6 mg SC): <2 fold
- Fold-change Tregs ([4]; 6 mg SC): 4-8 fold
- Fold-change CD8+ ([4]; 8 mg SC): ~2 fold
- Fold-change Tregs ([4]; 8 mg SC): 5-10 fold
- Fold-change CD8+ ([4]; 9 mg IV (optional Cohort A6)): ~2 fold
- Fold-change Tregs ([4]; 9 mg IV (optional Cohort A6)): 10-20 fold
- NOAEL AUC[0-504 hours] (monkeys [5]; 12-week (once every 3 weeks) SC monkey toxicology study): ≤ 306 μ·h/ml
- magnitude of increase in Tregs relative to increase in conventional T cells (monkeys [5]; 12-week monkey study, Q3W, across the dose range): ≤ 2 times
- eosinophilic or mononuclear cell infiltration into other tissues (monkeys [5]; monkey, in vivo, sc): no eosinophilic or mononuclear cell infiltration into other tissues
- NOAEL (monkeys [5]; monkeys, 12-week SC Q3W): 0.25 mg/kg/dose
- mean AUC at NOAEL (monkeys [5]; monkeys, […] Q3W): 306 µg·h/mL
- % of Tregs pSTAT5+ ([6]; highest concentration of drug): > 90%
- % pSTAT5+ cells in Tconv, CD8 cells and NK cells ([6]; highest concentration of drug at 71 nM): < 50%
- Kd [7]: > 4 µM
- total serum clearance (CLTs) [8]: 3.25 mL/h/kg
- steady-state volume of distribution (Vss) ([8]; IV): 0.0954 L/kg
- absolute bioavailability ([8]; SC dosing): 58%
- apparent elimination half-life (T-HALF) ([8]; SC dosing): 28.3 h
- time of maximum concentration (Tmax) ([8]; SC dosing): 7 h
- linker-cleavage [9]: did not show signs of linker-cleavage
- linker-cleavage [10]: did not show signs of linker-cleavage
